Data: patent US11807644B2 (PMV Pharmaceuticals, Inc., priority 2020, dated 2023)

Target: T1, recombinant His-tag Y220C p53 DBD protein (Homo sapiens, UniProt P04637, Y220C)
T1 construct: recombinant His-tag Y220C p53 DBD protein (amino acids #˜94-312)
Test: In vitro DNA binding activity assay (TR-FRET): binding of His-tag Y220C p53 DBD to biotin-labeled consensus DNA
Assay type: biochemical
Conditions: SC150 = concentration to increase DNA binding by […], His-tag Y220C p53 DBD, biotin-labeled consensus DNA

| SMILES | Y220C SC150 (μM) |
| --- | --- |
| CN1CC[C@@H](Nc2cccc3c2cc(-c2noc(CNc4cccc5c4ccn5C)n2)n3CC(F)(F)F)[C@@H](F)C1 [Compound 462B, N-[(3S,4R)-3-fluoro-1-methylpiperidin-4-yl]-2-(5-{[(1-methyl-1H-indol-4-yl)amino]methyl}-1,2,4-oxadiazol-3-yl)-1-(2,2,2-trifluoroethyl)-1H-indol-4-amine] | * (* = 0 μM ≤ SC150 < 0.1 μM) |
| COCc1cc(C(=O)NCc2nc(-c3cc4c(N[C@@H]5CCN(C)C[C@@H]5F)cccc4n3CC(F)(F)F)no2)cs1 [Compound 464B, N-{[3-(4-{[(3S,4R)-3-fluoro-1-methylpiperidin-4-yl]amino}-1-(2,2,2-trifluoroethyl)-1H-indol-2-yl)-1,2,4-oxadiazol-5-yl]methyl}-5-(methoxymethyl)thiophene-3-carboxamide] | * (* = 0 μM ≤ SC150 < 0.1 μM) |
| CN1CC[C@@H](Nc2cccc3c2cc(-c2noc(CNC(=O)c4cnn(Cc5ccccc5)c4)n2)n3CC(F)(F)F)[C@@H](F)C1 [Compound 300B, 1-benzyl-N-{[3-(4-{[(3S,4R)-3-fluoro-1-methylpiperidin-4-yl]amino}-1-(2,2,2-trifluoroethyl)-1H-indol-2-yl)-1,2,4-oxadiazol-5-yl]methyl}-1H-pyrazole-4-carboxamide] | * (* = 0 μM ≤ SC150 < 0.1 μM) |
| Cn1cc(C(=O)NCc2nc(-c3cc4c(N[C@@H]5CCN(C(C)(C)C)C[C@H]5F)cccc4n3CC(F)(F)F)no2)cn1 (racemic) [Compound 407B, N-{[3-(4-{[(3R,4R)-1-tert-butyl-3-fluoropiperidin-4-yl]amino}-1-(2,2,2-trifluoroethyl)-1H-indol-2-yl)-1,2,4-oxadiazol-5-yl]methyl}-1-methyl-1H-pyrazole-4-carboxamide] | * (* = 0 μM ≤ SC150 < 0.1 μM) |
| CN1CC[C@@H](Nc2cccc3c2cc(-c2noc(CN(C)c4cn[nH]c4)n2)n3CC(F)(F)F)[C@@H](F)C1 (racemic) [Compound 192B, (+/−)-N-[(3R,4S)-3-fluoro-1-methylpiperidin-4-yl]-2-(5-{[methyl(1H-pyrazol-4-yl)amino]methyl}-1,2,4-oxadiazol-3-yl)-1-(2,2,2-trifluoroethyl)-1H-indol-4-amine] | * (* = 0 μM ≤ SC150 < 0.1 μM) |
| CN1CC[C@@H](Nc2cccc3c2cc(-c2noc(CNC(=O)c4cnc(C(C)(C)C)s4)n2)n3CC(F)(F)F)[C@@H](F)C1 [Compound 437B, 2-tert-butyl-N-{[3-(4-{[(3S,4R)-3-fluoro-1-methylpiperidin-4-yl]amino}-1-(2,2,2-trifluoroethyl)-1H-indol-2-yl)-1,2,4-oxadiazol-5-yl]methyl}-1,3-thiazole-5-carboxamide] | * (* = 0 μM ≤ SC150 < 0.1 μM) |
| COC(C)(C)c1cc(C(=O)NCc2nc(-c3cc4c(N[C@H]5CCNC[C@H]5F)cccc4n3CC(F)(F)F)no2)cs1 [Compound 490B, N-{[3-(4-{[(3R,4S)-3-fluoropiperidin-4-yl]amino}-1-(2,2,2-trifluoroethyl)-1H-indol-2-yl)-1,2,4-oxadiazol-5-yl]methyl}-5-(2-methoxypropan-2-yl)thiophene-3-carboxamide] | * (* = 0 μM ≤ SC150 < 0.1 μM) |
| CCc1cc(C(=O)NCc2nc(-c3cc4c(N[C@@H]5CCN(C)C[C@@H]5F)cccc4n3CC(F)(F)F)no2)on1 [Compound 521B, 3-ethyl-N-{[3-(4-{[(3S,4R)-3-fluoro-1-methylpiperidin-4-yl]amino}-1-(2,2,2-trifluoroethyl)-1H-indol-2-yl)-1,2,4-oxadiazol-5-yl]methyl}-1,2-oxazole-5-carboxamide] | * (* = 0 μM ≤ SC150 < 0.1 μM) |
| CN1CC[C@@H](Nc2cccc3c2cc(-c2nnc(CNC(=O)C4CCC4)s2)n3CC(F)(F)F)[C@@H](F)C1 (racemic) [Compound 37B, (+/−)-N-{[5-(4-{[(3R,4S)-3-fluoro-1-methylpiperidin-4-yl]amino}-1-(2,2,2-trifluoroethyl)-1H-indol-2-yl)-1,3,4-thiadiazol-2-yl]methyl}cyclobutanecarboxamide] | ** (** = 0.1 μM ≤ SC150 < 0.5 μM) |
| CC(CO)n1ccc(C(=O)NCc2nc(-c3cc4c(N[C@@H]5CCN(C)C[C@@H]5F)cccc4n3CC(F)(F)F)no2)c1 (stereo partly drawn) [Compound 237B, N-{[3-(4-{[(3S,4R)-3-fluoro-1-methylpiperidin-4-yl]amino}-1-(2,2,2-trifluoroethyl)-1H-indol-2-yl)-1,2,4-oxadiazol-5-yl]methyl}-1-(1-hydroxypropan-2-yl)-1H-pyrrole-3-carboxamide] | * (* = 0 μM ≤ SC150 < 0.1 μM) |
| CN1CC[C@@H](Nc2cccc3c2cc(-c2cc(CNC(=O)c4csc(C(C)(C)O)c4)on2)n3CC(F)(F)F)[C@@H](F)C1 [Compound 555B, N-{[3-(4-{[(3S,4R)-3-fluoro-1-methylpiperidin-4-yl]amino}-1-(2,2,2-trifluoroethyl)-1H-indol-2-yl)-1,2-oxazol-5-yl]methyl}-5-(2-hydroxypropan-2-yl)thiophene-3-carboxamide] | * (* = 0 μM ≤ SC150 < 0.1 μM) |
| COC(C)(C)Cn1ccc(C(=O)NCc2nc(-c3cc4c(N[C@@H]5CCN(C)C[C@@H]5F)cccc4n3CC(F)(F)F)no2)c1 [Compound 251B, N-{[3-(4-{[(3S,4R)-3-fluoro-1-methylpiperidin-4-yl]amino}-1-(2,2,2-trifluoroethyl)-1H-indol-2-yl)-1,2,4-oxadiazol-5-yl]methyl}-1-(2-methoxy-2-methylpropyl)-1H-pyrrole-3-carboxamide] | * (* = 0 μM ≤ SC150 < 0.1 μM) |
| CC(C)c1ccc(C(=O)NCc2nc(-c3cc4c(N[C@@H]5CCN(C)C[C@@H]5F)cccc4n3CC(F)(F)F)no2)s1 [Compound 444B, N-{[3-(4-{[(3S,4R)-3-fluoro-1-methylpiperidin-4-yl]amino}-1-(2,2,2-trifluoroethyl)-1H-indol-2-yl)-1,2,4-oxadiazol-5-yl]methyl}-5-(propan-2-yl)thiophene-2-carboxamide] | * (* = 0 μM ≤ SC150 < 0.1 μM) |
| CN1CC[C@@H](Nc2cccc3c2cc(-c2noc(CNC(=O)[C@H]4CC4(C)C)n2)n3CC(F)(F)F)[C@@H](F)C1 [Compound 233B, (1S)-N-{[3-(4-{[(3S,4R)-3-fluoro-1-methylpiperidin-4-yl]amino}-1-(2,2,2-trifluoroethyl)-1H-indol-2-yl)-1,2,4-oxadiazol-5-yl]methyl}-2,2-dimethylcyclopropane-1-carboxamide] | * (* = 0 μM ≤ SC150 < 0.1 μM) |
| CN1CC[C@@H](Nc2cccc3c2cc(-c2noc(CNC(=O)c4ccc5[nH]ccc5c4)n2)n3CC(F)(F)F)[C@@H](F)C1 [Compound 258B, N-{[3-(4-{[(3S,4R)-3-fluoro-1-methylpiperidin-4-yl]amino}-1-(2,2,2-trifluoroethyl)-1H-indol-2-yl)-1,2,4-oxadiazol-5-yl]methyl}-1H-indole-5-carboxamide] | * (* = 0 μM ≤ SC150 < 0.1 μM) |
| CN1CC[C@@H](Nc2cccc3c2cc(-c2nc(CNC(=O)c4cncs4)no2)n3CC(F)(F)F)[C@@H](F)C1 (racemic) [Compound 279B, (+/−)-N-{[5-(4-{[(3R,4S)-3-fluoro-1-methylpiperidin-4-yl]amino}-1-(2,2,2-trifluoroethyl)-1H-indol-2-yl)-1,2,4-oxadiazol-3-yl]methyl}-1,3-thiazole-5-carboxamide] | * (* = 0 μM ≤ SC150 < 0.1 μM) |
| COC(C)(C)c1ccc(C(=O)NCc2nc(-c3cc4c(N[C@@H]5CCN(C)C[C@@H]5F)cccc4n3CC(F)(F)F)no2)s1 [Compound 439B, N-{[3-(4-{[(3S,4R)-3-fluoro-1-methylpiperidin-4-yl]amino}-1-(2,2,2-trifluoroethyl)-1H-indol-2-yl)-1,2,4-oxadiazol-5-yl]methyl}-5-(2-methoxypropan-2-yl)thiophene-2-carboxamide] | * (* = 0 μM ≤ SC150 < 0.1 μM) |
| CO[C@H]1CCN(c2nc(C(=O)NCc3nc(-c4cc5c(N[C@@H]6CCN(C)C[C@@H]6F)cccc5n4CC(F)(F)F)no3)cs2)C1 [Compound 523B, N-{[3-(4-{[(3S,4R)-3-fluoro-1-methylpiperidin-4-yl]amino}-1-(2,2,2-trifluoroethyl)-1H-indol-2-yl)-1,2,4-oxadiazol-5-yl]methyl}-2-[(3S)-3-methoxypyrrolidin-1-yl]-1,3-thiazole-4-carboxamide] | * (* = 0 μM ≤ SC150 < 0.1 μM) |
| CN1CCC(Nc2cccc3c2cc(-c2nnc(CNC4CCNC4)s2)n3CC(F)(F)F)CC1 (stereo not shown) [Compound 80B, N-(1-methylpiperidin-4-yl)-2-(5-{[(pyrrolidin-3-yl)amino]methyl}-1,3,4-thiadiazol-2-yl)-1-(2,2,2-trifluoroethyl)-1H-indol-4-amine] | **** (**** = 1 μM ≤ SC150 < 10 μM) |
| CN1CC[C@@H](Nc2cccc3c2cc(-c2noc(CNC(=O)c4cnn(C5CCC(F)C5)c4)n2)n3CC(F)(F)F)[C@@H](F)C1 (stereo partly drawn) [Compound 339B, N-{[3-(4-{[(3S,4R)-3-fluoro-1-methylpiperidin-4-yl]amino}-1-(2,2,2-trifluoroethyl)-1H-indol-2-yl)-1,2,4-oxadiazol-5-yl]methyl}-1-(3-fluorocyclopentyl)-1H-pyrazole-4-carboxamide] | * (* = 0 μM ≤ SC150 < 0.1 μM) |

Same assay, conditions: concentration to increase DNA binding by […], incubated at either 27° C. or 29° C. for 60 min

| SMILES | SC150 (μM) |
| --- | --- |
| O=S1(=O)CCC(Nc2cccc3c2cc(-c2ccc(CN4CCOCC4)cc2)n3CC(F)(F)F)CC1 [Compound 24A, 4-[(2-{4-[(morpholin-4-yl)methyl]phenyl}-1-(2,2,2-trifluoroethyl)-1H-indol-4-yl)amino]-1λ^6-thiane-1,1-dione] | +++ (+++ = 5 μM ≤ SC150 < 10 μM) |
| O=S1(=O)CCC(Nc2cccc3c2cc(-c2ccc(CNc4ccccc4)cc2)n3CC(F)(F)F)CC1 [Compound 9A, 4-[(2-{4-[(phenylamino)methyl]phenyl}-1-(2,2,2-trifluoroethyl)-1H-indol-4-yl)amino]-1λ^6-thiane-1,1-dione] | +++ (+++ = 5 μM ≤ SC150 < 10 μM) |
